Results from patent US5173510A, “Simplified thioester and isostere analogs of oleoyl coenzyme A as hypocholesterolemic agents” (American Cyanamid Company, priority 1991, dated 1992).

Biological target: T1, acyl coenzyme A: cholesterol O-acyltransferase (ACAT) (Oryctolagus cuniculus, UniProt G1SFD9)
T1 construct: The microsomal fraction was isolated by centrifugation and stored frozen; from tissue; host or cells: jejunal mucosa microsomes of New Zealand white rabbits
T1 sequence (G1SFD9 1-524): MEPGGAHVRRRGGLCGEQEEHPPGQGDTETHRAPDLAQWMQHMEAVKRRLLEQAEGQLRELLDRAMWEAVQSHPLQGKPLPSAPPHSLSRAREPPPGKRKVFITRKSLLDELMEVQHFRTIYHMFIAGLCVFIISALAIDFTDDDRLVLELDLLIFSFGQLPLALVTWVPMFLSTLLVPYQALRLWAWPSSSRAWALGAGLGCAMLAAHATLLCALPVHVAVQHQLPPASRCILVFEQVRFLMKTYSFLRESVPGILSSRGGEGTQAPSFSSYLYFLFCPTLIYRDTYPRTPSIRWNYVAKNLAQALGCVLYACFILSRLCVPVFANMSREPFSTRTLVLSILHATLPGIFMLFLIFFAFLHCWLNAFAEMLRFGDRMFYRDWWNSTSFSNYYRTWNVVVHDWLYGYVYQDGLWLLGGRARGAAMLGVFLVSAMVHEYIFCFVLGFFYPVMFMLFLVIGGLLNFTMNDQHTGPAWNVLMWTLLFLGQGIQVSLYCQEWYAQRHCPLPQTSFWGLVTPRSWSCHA
Assay: Inhibition of ACAT catalyzed formation of cholesterol oleate from endogenous cholesterol and exogenous 14C oleate
Format: biochemical, New Zealand white rabbits
Settings: for IC50: concentration at which 50% of the cholesterol esterification reaction is inhibited, rabbit jejunum mucosa microsomal fraction; for potency as inhibitors of the ACAT enzyme catalyzed reaction (in words): summary statement on Table I
Description: The compounds of this invention were tested for their ability to inhibit the acyl coenzyme A: cholesterol O-acyltransferase (ACAT) catalyzed formation of cholesterol oleate from endogenous cholesterol and exogenous ^14 C oleate.
The mucosa from the Jejunum of New Zealand white rabbits was removed by scraping with a spatula and homogenized in a solution containing 0.25M sucrose, 1 mM EDTA, 1 mM dithiothreitol and 5 mM of potassium phosphate (pH 7.4). The microsomal fraction was isolated by centrifugation and stored frozen at -70° C. in sucrose buffer (3 mg protein/ml) until use. The ACAT reaction was assayed using the method of S. Hashimoto, et al., Life Science 12, 1 (1973). The test compounds were dissolved in methanol at concentrations such that the addition of 0.003 ml in a reaction volume of 0.5 ml gave the final desired concentration.
Referring to the table, IC50 indicates the concentration of the compound at which 50% of the cholesterol esterfication reaction is inhibited. […] As can be observed from the table, the compounds of the present invention are very potent inhibitors of the ACAT enzyme catalyzed reaction. […] In view of the results presented in the table, these compounds are useful for controlling and reducing the cholesteryl ester content of mammalian arterial walls and decreasing the accumulation and storage of cholesterol in the arterial walls of mammals. Further, the compounds of this invention may inhibit the formation or development of atherosclerotic lesions in mammals.

| Structure (SMILES) | IC50 [µM] | potency as inhibitors of the ACAT enzyme catalyzed reaction (in words) |
| --- | --- | --- |
| CCCCCCCC/C=C\CCCCCCCC(=O)SCCNC(C)=O [Example 3, S-[2-(Acetylamino)ethyl]-9(Z)-octadecenethioic acid] | > 100 | – |
| CCCCCCCC/C=C\CCCCCCCC(=O)SCCNC(=O)CCNC(C)=O [Example 6, S-[2-[[3-(Acetylamino)-1-oxopropyl]amino]ethyl]-9(Z)-octadecenethioate] | > 100 | – |
| CCCCCCCC/C=C\CCCCCCCC(=O)SCCNC(=O)CCNC(=O)[C@H](O)C(C)(C)CO [Example 10, S-[2-[[3-[(2,4-Dihydroxy-3,3-dimethyl-1-oxobutyl)amino]-1-oxopropyl]amino]ethyl]-9(Z)octadecenethioic acid] | 103 | – |
| CCCCCCCC/C=C\CCCCCCCC(=O)OCCNC(C)=O [Example 11] | > 100 | – |
| CCCCCCCC/C=C\CCCCCCCC(=O)OCCNC(=O)CCNC(C)=O [Example 13, 2-[[3-(Acetylamino)-1-oxopropyl]amino]ethyl-9(Z)-octadecenoate] | > 150 | – |
| CCCCCCCC/C=C\CCCCCCCC(=O)OCCNC(=O)CCNC(=O)C(O)C(C)(C)CO (stereo not drawn) [Example 17, 2-[[3-[(2,4-Dihydroxy-3,3-dimethyl-1-oxo-butyl)amino]-1-oxopropyl]amino]ethyl-9(Z)-octadecenoate] | 77 | – |
| CCCCCCCC/C=C\CCCCCCCC(=O)NCCNC(C)=O [Example 18, N-[2-(Acetylamino)ethyl]-9(Z)-octadecenamide] | 39 | – |
| CCCCCCCC/C=C\CCCCCCCC(=O)NCCNC(=O)CCNC(C)=O [Example 22, N-[2-[[3-(Acetylamino)-1-oxopropyl]amino]ethyl]-9(Z)-octadecenamide] | > 100 | – |
| CCCCCCCC/C=C\CCCCCCCC(=O)NCCNC(=O)CCNC(=O)C1OC(C)(C)OCC1(C)C (stereo not drawn) [Example 25, 2,2,5,5-Tetramethyl-N-[3-oxo-3-[[2-[(1-oxo-9(Z)-octadecenyl)amino]ethyl]amino]propyl]-1,3-dioxane-4-carboxamide] | 1.2 | most potent |
| CCCCCCCC/C=C\CCCCCCCC(=O)NCCNC(=O)CCNC(=O)C(O)C(C)(C)CO (stereo not drawn) [Example 26, N-[2-[[3-[(2,4-Dihydroxy-3,3-dimethyl-1-oxo-butyl)amino]-1-oxopropyl]amino]ethyl]-9(Z)-octadecenamide] | 3.3 | most potent |
| CCCCCCCC/C=C\CCCCCCCC(O)CCCNC(C)=O (stereo not drawn) [Example 31] | 47 | – |
| CCCCCCCC/C=C\CCCCCCCC(=O)CCCNC(C)=O [Example 32] | 66 | – |
| CCCCCCCC/C=C\CCCCCCCC(O)CCCNC(=O)CCNC(C)=O (stereo not drawn) [Example 33, 3-(Acetylamino)-N-(4-hydroxy-12(Z)-heneicosenyl)propanamide] | 108 | – |
| CCCCCCCC/C=C\CCCCCCCC(=O)CCCNC(=O)CCNC(C)=O [Example 34, 3-(Acetylamino)-N-(4-oxo-12(Z)-heneicosenyl)propanamide] | 113 | – |
| CCCCCCCC/C=C\CCCCCCCC(=O)CCCNC(=O)CCNC(=O)C(O)C(C)(C)CO (stereo not drawn) [Example 37, 2,4-Dihydroxy-2,2-dimethyl-N-[3-oxo-3-[(4-oxo-12(Z)-heneicosenyl)amino]propyl]butanamide] | 99 | – |
| CCCCCCCC/C=C\CCCCCCCC(O)CCCNC(=O)CCNC(=O)C(O)C(C)(C)CO (stereo not drawn) [Example 38, 2,4-Dihydroxy-N-[3-[(4-hydroxy-12(Z)-heneicosyl)amino]-3-oxopropyl]-3,3-dimethylbutanamide] | 57 | – |
